From PubChem BioAssay AID248 (DTP/NCI, 2004)
Values joined by “and” are separate entries in the source; they are usually repeats but may differ in a detail not shown here. Equal entries are not always repeated. Inconclusive results and toxic doses are left out. Cut-off read from the data, not from the text of the source: active = T/C of 150% or more; inactive = T/C below 125%.

Tested on: L1210 leukemia ip in BDF1 mice, survival T/C
Test: NCI In Vivo Anticancer Drug Screen. Data for tumor model L1210 Leukemia (intraperitoneal) in B6D2F1 (BDF1) mice
Conditions: endpoint: mean survival time, higher = longer survival
In short: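 Each compound was tested against a transplantable tumor grown in mice. The endpoint was survival, with treated animals benchmarked against vehicle controls as a simple ratio.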

[1] = dose: 100.0 mg/kg/injection, schedule: Q01DX009 (ip), vehicle: Klucel (hydroxypropylcellulose) (HPC)
[2] = dose: 100.0 mg/kg/injection, schedule: Q04DX003 (ip), vehicle: Klucel (hydroxypropylcellulose) (HPC)
[3] = dose: 200.0 mg/kg/injection, schedule: Q01DX009 (ip), vehicle: Klucel (hydroxypropylcellulose) (HPC)
[4] = dose: 200.0 mg/kg/injection, schedule: Q04DX003 (ip), vehicle: Klucel (hydroxypropylcellulose) (HPC)
[5] = dose: 400.0 mg/kg/injection, schedule: Q04DX003 (ip), vehicle: Klucel (hydroxypropylcellulose) (HPC)
[6] = dose: 75.0 mg/kg/injection, schedule: Q01DX001 (ip), vehicle: saline
[7] = dose: 400.0 mg/kg/injection, schedule: Q01DX001 (ip), vehicle: saline
[8] = dose: 100.0 mg/kg/injection, schedule: Q01DX001 (ip), vehicle: carboxymethylcellulose (CMC)
[9] = dose: 200.0 mg/kg/injection, schedule: Q01DX001 (ip), vehicle: carboxymethylcellulose (CMC)
[10] = dose: 400.0 mg/kg/injection, schedule: Q01DX001 (ip), vehicle: carboxymethylcellulose (CMC)

Measured: T/C

CCCCCCCCNC1=C(OC)C(=O)C(NCCCCCCCC)=C(OC)C1=O
inactive: [1] 98 % of control | [2] 96 % of control | [3] 104 % of control | [4] 91 % of control | dose: 400.0 mg/kg/injection, schedule: Q01DX009 (ip), vehicle: Klucel (hydroxypropylcellulose) (HPC) 98 % of control | [5] 88 % of control

Cc1nc(N)cc(=O)[nH]1
inactive: dose: 100.0 mg/kg/injection, schedule: Q01DX009 (ip), vehicle: water 112 % of control | dose: 100.0 mg/kg/injection, schedule: Q04DX003 (ip), vehicle: water 97 % of control | dose: 200.0 mg/kg/injection, schedule: Q01DX009 (ip), vehicle: water 104 % of control | dose: 200.0 mg/kg/injection, schedule: Q04DX003 (ip), vehicle: water 97 % of control | dose: 400.0 mg/kg/injection, schedule: Q04DX003 (ip), vehicle: water 97 % of control

CCC(O)C(CCN(C)C)(C(=O)N(C)C)c1ccccc1 (stereo not drawn)
inactive: [6] 98 % of control | dose: 150.0 mg/kg/injection, schedule: Q01DX001 (ip), vehicle: saline 100 % of control

CC(=O)/C=C(/C(=O)c1ccccc1)c1ccccc1
inactive: dose: 100.0 mg/kg/injection, schedule: Q01DX001 (ip), vehicle: saline with Tween-80 93 % of control | dose: 200.0 mg/kg/injection, schedule: Q01DX001 (ip), vehicle: saline with Tween-80 98 % of control | dose: 400.0 mg/kg/injection, schedule: Q01DX001 (ip), vehicle: saline with Tween-80 97 % of control

O=C1c2ccccc2C(=O)c2c(O)c3c(c(O)c21)CCCC3OC1OC(CO)C(O)C(O)C1O (stereo not drawn)
inactive: [7] 91 % of control

COc1ccc2c(c1O)C13C=C(C)C(=O)CC1C(C2)N(C)CC3 (stereo not drawn)
inactive: [6] 106 % of control

C[N+]1(C)CCN(c2ccccc2)CC1
inactive: dose: 9.38 mg/kg/injection, schedule: Q01DX001 (ip), vehicle: saline 108 % of control | dose: 18.75 mg/kg/injection, schedule: Q01DX001 (ip), vehicle: saline 105 % of control

CCNC(=S)N/N=C(/c1ccc(OC)cc1)P(=O)(OCC)OCC
inactive: [2] 104 % of control | [4] 100 % of control | [5] 89 % of control

COC1OC2COC(c3ccccc3)OC2C(O)C1OC(N)=S (stereo not drawn)
inactive: dose: 25.0 mg/kg/injection, schedule: Q04DX002 (ip), vehicle: Klucel (hydroxypropylcellulose) (HPC) 98 % of control | dose: 50.0 mg/kg/injection, schedule: Q04DX002 (ip), vehicle: Klucel (hydroxypropylcellulose) (HPC) 98 % of control | dose: 100.0 mg/kg/injection, schedule: Q04DX002 (ip), vehicle: Klucel (hydroxypropylcellulose) (HPC) 88 % of control | dose: 200.0 mg/kg/injection, schedule: Q04DX002 (ip), vehicle: Klucel (hydroxypropylcellulose) (HPC) 100 % of control | dose: 400.0 mg/kg/injection, schedule: Q04DX002 (ip), vehicle: Klucel (hydroxypropylcellulose) (HPC) 96 % of control

CCCCCCCCCC(=O)N/N=C/c1ccncc1
inactive: [1] 89 % of control | [3] 103 % of control

CC/C(C)=N\O
inactive: dose: 50.0 mg/kg/injection, schedule: Q01DX001 (ip), vehicle: saline 112 % of control | dose: 100.0 mg/kg/injection, schedule: Q01DX001 (ip), vehicle: saline 101 % of control | dose: 200.0 mg/kg/injection, schedule: Q01DX001 (ip), vehicle: saline 93 % of control | [7] 95 % of control

CC(C)OC(=O)c1cc(C(=O)OC(C)C)cc(S(N)(=O)=O)c1
inactive: dose: 100.0 mg/kg/injection, schedule: Q01DX001 (ip), vehicle: other 106 % of control | dose: 200.0 mg/kg/injection, schedule: Q01DX001 (ip), vehicle: other 98 % of control | dose: 400.0 mg/kg/injection, schedule: Q01DX001 (ip), vehicle: other 95 % of control

O=[N+]([O-])c1ccccc1OCCBr
inactive: [2] 100 % of control | [4] 94 % of control

O=C1NN(c2ccccc2)CCO1
inactive: [1] 100 % of control | [3] 93 % of control

CCCCOC(=O)C#CC(=O)OCCCC
inactive: dose: 6.25 mg/kg/injection, schedule: Q01DX009 (ip), vehicle: carboxymethylcellulose (CMC) 94 % of control | dose: 6.25 mg/kg/injection, schedule: Q04DX003 (ip), vehicle: carboxymethylcellulose (CMC) 100 % of control | dose: 12.5 mg/kg/injection, schedule: Q01DX009 (ip), vehicle: carboxymethylcellulose (CMC) 96 % of control | dose: 12.5 mg/kg/injection, schedule: Q04DX002 (ip), vehicle: carboxymethylcellulose (CMC) 95 % of control and 97 % of control | dose: 12.5 mg/kg/injection, schedule: Q04DX003 (ip), vehicle: carboxymethylcellulose (CMC) 97 % of control | dose: 25.0 mg/kg/injection, schedule: Q04DX002 (ip), vehicle: carboxymethylcellulose (CMC) 92 % of control and 95 % of control | dose: 25.0 mg/kg/injection, schedule: Q04DX003 (ip), vehicle: carboxymethylcellulose (CMC) 95 % of control | dose: 50.0 mg/kg/injection, schedule: Q04DX002 (ip), vehicle: carboxymethylcellulose (CMC) 90 % of control

C/C=C/C(=O)Nc1cccc(OC(=O)NCC)c1
inactive: dose: 100.0 mg/kg/injection, schedule: Q04DX003 (ip), vehicle: saline with Tween-80 95 % of control | dose: 200.0 mg/kg/injection, schedule: Q04DX003 (ip), vehicle: saline with Tween-80 93 % of control | dose: 400.0 mg/kg/injection, schedule: Q04DX003 (ip), vehicle: saline with Tween-80 98 % of control

Clc1ccc(C2ON2C2CCCCC2)cc1 (stereo not drawn)
inactive: [8] 95 % of control | [9] 101 % of control | [10] 101 % of control

CC(CN(C)C)CN1c2ccccc2C(C)(C)c2ccccc21 (stereo not drawn)
inactive: dose: 13.8 mg/kg/injection, schedule: Q01DX001 (ip), vehicle: water 101 % of control | dose: 27.5 mg/kg/injection, schedule: Q01DX001 (ip), vehicle: water 104 % of control | dose: 45.0 mg/kg/injection, schedule: Q01DX001 (ip), vehicle: water 98 % of control | dose: 50.0 mg/kg/injection, schedule: Q01DX001 (ip), vehicle: water 91 % of control | dose: 100.0 mg/kg/injection, schedule: Q01DX001 (ip), vehicle: water 91 % of control | dose: 200.0 mg/kg/injection, schedule: Q01DX001 (ip), vehicle: water 91 % of control | dose: 400.0 mg/kg/injection, schedule: Q01DX001 (ip), vehicle: water 97 % of control

CCOC(=O)C1C(C(=O)c2ccc(C)cc2)C2(Cl)C(Cl)=C(Cl)C1(Cl)C2(Cl)Cl (stereo not drawn)
inactive: dose: 100.0 mg/kg/injection, schedule: Q01DX009 (ip), vehicle: saline 96 % of control | dose: 200.0 mg/kg/injection, schedule: Q01DX009 (ip), vehicle: saline 91 % of control | dose: 400.0 mg/kg/injection, schedule: Q01DX009 (ip), vehicle: saline 98 % of control

O=C1N2CCOC2=NC1(c1ccccc1)c1ccccc1
inactive: dose: 50.0 mg/kg/injection, schedule: Q01DX009 (ip), vehicle: saline 111 % of control | dose: 100.0 mg/kg/injection, schedule: Q04DX003 (ip), vehicle: saline 94 % of control | dose: 200.0 mg/kg/injection, schedule: Q04DX003 (ip), vehicle: saline 103 % of control

CCC1(C)C(=O)N(C)C(=O)N1Br (stereo not drawn)
inactive: dose: 25.0 mg/kg/injection, schedule: Q01DX009 (ip), vehicle: Klucel (hydroxypropylcellulose) (HPC) 96 % of control | dose: 50.0 mg/kg/injection, schedule: Q01DX009 (ip), vehicle: Klucel (hydroxypropylcellulose) (HPC) 101 % of control | [2] 97 % of control

C=CC(C)(C)c1c(OC(C)=O)cc2oc3c(OC(C)=O)c(OC(C)=O)cc(CC=C(C)C)c3c(=O)c2c1O
inactive: [8] 95 % of control | [9] 92 % of control | [10] 111 % of control

CC12CCC3c4ccc(OC(=O)c5ccc(N)cc5)cc4CCC3C1CCC2=O (stereo not drawn)
inactive: dose: 12.5 mg/kg/injection, schedule: Q04DX002 (ip), vehicle: saline with Tween-80 110 % of control | dose: 25.0 mg/kg/injection, schedule: Q04DX002 (ip), vehicle: saline with Tween-80 106 % of control | dose: 50.0 mg/kg/injection, schedule: Q04DX002 (ip), vehicle: saline with Tween-80 95 % of control | dose: 100.0 mg/kg/injection, schedule: Q01DX001 (sc), vehicle: steriod suspending solution 95 % of control | dose: 200.0 mg/kg/injection, schedule: Q01DX001 (sc), vehicle: steriod suspending solution 97 % of control | dose: 400.0 mg/kg/injection, schedule: Q01DX001 (sc), vehicle: steriod suspending solution 95 % of control

O=[N+]([O-])c1ccc2cccnc2c1
inactive: dose: 75.0 mg/kg/injection, schedule: Q01DX001 (ip), vehicle: carboxymethylcellulose (CMC) 106 % of control | dose: 150.0 mg/kg/injection, schedule: Q01DX001 (ip), vehicle: carboxymethylcellulose (CMC) 104 % of control | dose: 300.0 mg/kg/injection, schedule: Q01DX001 (ip), vehicle: carboxymethylcellulose (CMC) 101 % of control
